Assay results: US12600732B2, “Bifunctional compounds for degrading BTK via ubiquitin proteosome pathway” (NURIX THERAPEUTICS, INC., priority 2019, dated 2026)
Where two headings read alike, the source gives them in different places. One block for each compound: values may come before it.

Assays:
TMD8 C481S cells = assay: Cell viability assay (CellTiter-Glo), TMD8 C481S cells; settings: for EC50: Homo sapiens, TMD8, 72 h; for EMAX (% viable cells): TMD8 C481S cells, treatment time 72 h
[1] = PK data for BTK CTMs (in vivo plasma concentrations); settings: for Vd: read-out: Volume of Distribution
Excerpt: The present example evaluates in vivo plasma concentrations of BTK CTMs to develop PK-PD-efficacy relationship and predict human exposure.

Aiolos [2] = target: T1, Aiolos (Homo sapiens, UniProt Q96SW2+Q9UKT9); assay: Aiolos degradation in Mantle Cell Lymphoma lines (flow cytometry); format: cell-based; settings: for DC50: treatment time 24 h
T1 construct: endogenous in cells; host or cells: Mino, Rec-1
Excerpt: Ikaros and Aiolos Degradation in Mantle Cell Lymphoma Lines (Ikaros and Aiolos Flow Cytometry)
This example evaluates the IMiD activity of CTMs in cellular models of Mantle Cell Lymphoma (MCL). […] These assays are to determine potency of CTMs for degrading IMiD neo-substrates in cellular models of MCL and to generate data to inform efficacy studies in MCL xenografts.

CRBN neo-substrates = assay: CRBN neo-substrate levels / IMiD activity in MOLT4 and TMD8 cells (FIGS. 10-12); format: cell-based; settings: for effect on CRBN neo-substrate levels in cells: MOLT4 and TMD8 cells, FIGS. 11A and 11B
Excerpt: FIGS. 10A and 10B provide effects of compounds 73, 72, 121, and 44, and control compounds, on neo-substrate and ITK or BTK levels after twenty-four hours in MOLT4 cells (FIG. 10A) and TMD8 cells (FIG. 10B).
FIGS. 11A and 11B provide effects of compounds 44, 72, and 149, and control compounds, on CRBN neo-substrate and ITK levels in MOLT4 cells (FIG. 11A) and TMD8 cells (FIG. 11B).
FIG. 12 provides effects of compounds 130, 149, and 44 on ITK levels and IMiD activity.

BTK [3] = target: T2, BTK (Mus musculus, UniProt P35991); assay: In vivo degradation of BTK in mouse PD experiments with oral dosing
T2 construct: from tissue; host or cells: mouse blood B cells / splenocytes (CD-1 or BALB/c)
How it was run: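 CD-1 or BALB/c mice dosed by oral gavage, screens at 90 mg/kg for 6 h, later at lower doses/longer times. Blood or splenocyte BTK measured by intracellular flow cytometry (or HTRF); % degradation from B-cell minus T-cell BTK geometric MFI, relative to vehicle.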

BTK [4] = target: BTK (Homo sapiens, UniProt Q06187); assay: BTK degradation (Total BTK HTRF) in Rec-1 cells (Mantle Cell Lymphoma model); format: cell-based; set-up: endogenous in cells; host or cells: TMD8, Mino, Rec-1; settings: treatment time 4 h
Experimental: BTK levels were determined using Cisbio Total-BTK HTRF (Homologous Time-Resolved Fluorescence) kit (63ADK064PEG) according to the manufacturer's protocol. Briefly, cells were incubated in 1× supplied lysis buffer for 30 minutes. In an opaque white low volume 96-well plate (Cisbio, 66PL96005), cell lysate was combined with two different specific BTK antibodies, one conjugated with Eu^3+-Cryptate FRET donor and one conjugated with d2 FRET acceptor. Assay controls include wells containing cell lysate with only the Eu^3+-Cryptate FRET donor antibody and wells containing both HTRF antibodies and lysis buffer without cells or control lysate provided by Cisbio. HTRF ratio was calculated as (acceptor signal at 665 nm/donor signal at 620 nm)×10^4. Background HTRF levels were determined from the control well containing the donor, but no acceptor, antibody. Background HTRF levels were subtracted from all samples. Readouts were reported as HTRF levels relative to HTRF levels of DMSO-treated cells. Four-parameter non-linear regressions were performed in GraphPad Prism 7.02 to obtain DC50 values.
This example evaluates the potency of CTMs in a model of Mantle Cell Lymphoma (MCL). To evaluate potential therapeutic indications, BTK CTMs were assayed in models of Mantle Cell Lymphoma as with the TMD8 cells (ABC-DLBCL) above. Tested CTMs had similar potencies for BTK degradation in the MCL cell lines (Mino and Rec-1) and TMD8 cells.

Aiolos [5] = assay: Non-human primate (cyno) DRF PD, Aiolos remaining in T cells; format: in vivo; settings: for % Aiolos Remaining in T cells: blood, 24 h after previous dose
Experimental: This example evaluates potency and tolerability of BTK CTMs following multiple, consecutive days of dosing and examines potency of compounds for BTK and Aiolos degradation. The data in the table below is from a study in which animals were dosed daily with the designated oral dose. Analysis for BTK and Aiolos levels was performed twenty-four hours following the previous dose.

[6] = oral dose 10 mg/kg, 24 h, splenocytes, HTRF
[7] = oral dose 30 mg/kg, 24 h, splenocytes, HTRF
[8] = 10 mg/kg PO daily, 1 day of dosing
[9] = 10 mg/kg PO daily, 14 days of dosing
[10] = 30 mg/kg PO daily, 1 day of dosing
[11] = 30 mg/kg PO daily, 14 days of dosing
[12] = 100 mg/kg PO daily, 1 day of dosing
[13] = 100 mg/kg PO daily, 14 days of dosing
[14] = Rat Sprague-Dawley, 10 mg/kg PO

T1 sequence (Q9UKT9 whole entry): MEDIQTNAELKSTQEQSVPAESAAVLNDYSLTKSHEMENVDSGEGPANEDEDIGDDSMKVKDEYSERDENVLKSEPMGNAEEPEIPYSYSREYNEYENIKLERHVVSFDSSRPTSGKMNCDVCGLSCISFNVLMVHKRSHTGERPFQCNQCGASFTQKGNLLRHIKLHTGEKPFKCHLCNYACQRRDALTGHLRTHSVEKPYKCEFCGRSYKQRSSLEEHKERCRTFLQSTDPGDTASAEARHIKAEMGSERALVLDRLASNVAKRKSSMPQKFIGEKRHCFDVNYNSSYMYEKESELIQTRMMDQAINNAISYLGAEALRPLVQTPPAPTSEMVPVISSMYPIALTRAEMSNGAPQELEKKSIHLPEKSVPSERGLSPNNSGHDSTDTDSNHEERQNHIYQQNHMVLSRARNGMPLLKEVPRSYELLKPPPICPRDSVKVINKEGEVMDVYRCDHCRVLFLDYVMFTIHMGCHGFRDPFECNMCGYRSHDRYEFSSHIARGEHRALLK
T1 sequence (Q96SW2 whole entry): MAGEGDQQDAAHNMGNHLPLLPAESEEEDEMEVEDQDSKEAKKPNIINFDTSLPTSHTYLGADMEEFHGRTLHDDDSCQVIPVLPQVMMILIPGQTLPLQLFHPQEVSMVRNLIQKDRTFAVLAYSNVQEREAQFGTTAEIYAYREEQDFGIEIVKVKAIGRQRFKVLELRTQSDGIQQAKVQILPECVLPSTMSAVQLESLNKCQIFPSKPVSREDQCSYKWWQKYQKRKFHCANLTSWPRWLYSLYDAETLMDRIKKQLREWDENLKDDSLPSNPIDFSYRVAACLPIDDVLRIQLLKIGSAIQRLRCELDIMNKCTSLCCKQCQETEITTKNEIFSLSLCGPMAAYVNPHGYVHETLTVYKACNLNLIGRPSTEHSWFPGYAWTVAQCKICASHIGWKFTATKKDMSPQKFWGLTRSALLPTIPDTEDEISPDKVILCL
T1 sequence (Q16531 whole entry partner): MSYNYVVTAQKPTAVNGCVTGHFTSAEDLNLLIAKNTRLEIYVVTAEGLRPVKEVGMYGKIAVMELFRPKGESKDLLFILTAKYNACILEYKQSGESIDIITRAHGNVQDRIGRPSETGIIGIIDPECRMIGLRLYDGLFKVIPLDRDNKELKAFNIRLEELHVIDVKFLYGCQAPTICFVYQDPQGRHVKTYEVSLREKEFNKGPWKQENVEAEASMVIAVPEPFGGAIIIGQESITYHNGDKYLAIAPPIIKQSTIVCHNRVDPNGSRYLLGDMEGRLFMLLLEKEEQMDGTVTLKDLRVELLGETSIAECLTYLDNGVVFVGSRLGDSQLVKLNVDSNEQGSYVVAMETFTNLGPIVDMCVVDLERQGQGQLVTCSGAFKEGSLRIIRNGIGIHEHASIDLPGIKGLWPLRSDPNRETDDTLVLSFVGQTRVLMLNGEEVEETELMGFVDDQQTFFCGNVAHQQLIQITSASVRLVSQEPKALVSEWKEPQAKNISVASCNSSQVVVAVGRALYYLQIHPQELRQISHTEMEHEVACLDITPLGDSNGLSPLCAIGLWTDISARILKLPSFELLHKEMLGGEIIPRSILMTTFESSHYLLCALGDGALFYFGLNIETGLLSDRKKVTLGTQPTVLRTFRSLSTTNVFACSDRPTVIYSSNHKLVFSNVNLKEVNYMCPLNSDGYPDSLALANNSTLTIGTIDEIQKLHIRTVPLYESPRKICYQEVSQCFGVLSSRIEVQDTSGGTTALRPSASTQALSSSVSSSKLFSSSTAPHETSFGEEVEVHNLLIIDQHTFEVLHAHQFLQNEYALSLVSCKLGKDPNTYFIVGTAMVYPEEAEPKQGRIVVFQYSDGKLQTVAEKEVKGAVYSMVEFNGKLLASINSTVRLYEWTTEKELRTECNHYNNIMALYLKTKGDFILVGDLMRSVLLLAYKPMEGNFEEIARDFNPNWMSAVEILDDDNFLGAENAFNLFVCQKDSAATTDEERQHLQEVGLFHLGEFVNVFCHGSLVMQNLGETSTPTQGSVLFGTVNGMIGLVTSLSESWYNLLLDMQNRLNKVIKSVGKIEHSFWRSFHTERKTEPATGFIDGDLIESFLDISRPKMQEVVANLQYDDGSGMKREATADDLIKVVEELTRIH
T2 sequence (P35991 whole entry): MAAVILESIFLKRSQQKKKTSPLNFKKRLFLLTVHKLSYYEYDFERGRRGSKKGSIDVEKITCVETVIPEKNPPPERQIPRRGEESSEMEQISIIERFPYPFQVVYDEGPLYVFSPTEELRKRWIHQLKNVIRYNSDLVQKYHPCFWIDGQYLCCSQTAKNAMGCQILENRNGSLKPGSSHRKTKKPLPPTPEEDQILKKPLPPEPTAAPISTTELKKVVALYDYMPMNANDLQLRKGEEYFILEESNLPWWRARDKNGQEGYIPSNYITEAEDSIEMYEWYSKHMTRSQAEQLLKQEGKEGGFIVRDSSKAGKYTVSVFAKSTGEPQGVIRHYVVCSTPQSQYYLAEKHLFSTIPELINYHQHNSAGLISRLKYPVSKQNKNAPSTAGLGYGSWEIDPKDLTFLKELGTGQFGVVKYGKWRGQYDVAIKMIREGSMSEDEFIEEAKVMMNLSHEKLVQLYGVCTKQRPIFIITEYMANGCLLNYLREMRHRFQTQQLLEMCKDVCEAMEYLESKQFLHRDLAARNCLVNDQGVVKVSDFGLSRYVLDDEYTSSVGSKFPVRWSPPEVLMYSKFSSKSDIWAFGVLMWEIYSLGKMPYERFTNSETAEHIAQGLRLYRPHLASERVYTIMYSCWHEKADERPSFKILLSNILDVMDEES
Chain of BTK (Homo sapiens, UniProt Q06187) (Q06187 whole entry): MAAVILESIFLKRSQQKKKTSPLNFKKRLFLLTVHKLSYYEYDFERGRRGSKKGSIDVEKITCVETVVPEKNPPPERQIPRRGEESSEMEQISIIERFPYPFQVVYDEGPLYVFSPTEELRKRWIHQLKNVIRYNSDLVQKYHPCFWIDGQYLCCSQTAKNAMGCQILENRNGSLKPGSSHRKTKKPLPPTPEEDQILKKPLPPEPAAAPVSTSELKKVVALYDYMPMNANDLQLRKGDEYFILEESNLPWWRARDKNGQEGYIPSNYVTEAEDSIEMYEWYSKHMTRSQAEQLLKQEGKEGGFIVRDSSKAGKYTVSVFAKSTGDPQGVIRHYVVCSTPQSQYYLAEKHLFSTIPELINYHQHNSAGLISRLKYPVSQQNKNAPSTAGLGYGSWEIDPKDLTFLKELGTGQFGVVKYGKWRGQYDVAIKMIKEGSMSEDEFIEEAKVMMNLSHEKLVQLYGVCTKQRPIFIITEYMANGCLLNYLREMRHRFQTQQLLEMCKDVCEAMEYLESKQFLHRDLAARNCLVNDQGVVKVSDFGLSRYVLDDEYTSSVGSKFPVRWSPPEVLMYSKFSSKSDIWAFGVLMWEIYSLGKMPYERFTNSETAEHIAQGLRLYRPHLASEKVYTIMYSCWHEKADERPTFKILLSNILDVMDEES

- AUC ([1]; Mouse Balb/c, 1 mg/kg IV): 4.07 µM·h
- clearance ([1]; Mouse Balb/c, 1 mg/kg IV): 5.1 mL/min/kg
- Vd ([1]; Mouse Balb/c, 1 mg/kg IV): 0.69 L/kg
- AUC ([1]; Mouse Balb/c, 10 mg/kg PO): 4 µM·h
- bioavailability ([1]; Mouse Balb/c, 10 mg/kg PO): 10%
- DC50 (Aiolos [2]; Mino cells): 100 nM
- DC50 (Aiolos [2]; Rec-1 cells): 70 nM
- % BTK Remaining (BTK [3]; dose 1(IV) mg/kg, 24 h, splenocytes, HTRF): 58%
- % BTK Remaining (BTK [3]; oral dose 1 mg/kg, 6 h, splenocytes, HTRF): 58%
- % BTK Remaining (BTK [3]; oral dose 3 mg/kg, 6 h, splenocytes, HTRF): 32%
- % BTK Remaining (BTK [3]; oral dose 10 mg/kg, 6 h, splenocytes, HTRF): 11%
- % BTK Remaining (BTK [3]; [6]): 34%
- % BTK Remaining (BTK [3]; oral dose 30 mg/kg, 6 h, splenocytes, HTRF): 4%
- % BTK Remaining (BTK [3]; [7]): 23%
- % BTK Remaining (BTK [3]; oral dose 90 mg/kg, 6 h, splenocytes, HTRF): 4%
- DC50 (BTK [4]): 1 nM
Compound: CN1CCN([C@@H]2CCCN(c3cnc(C(N)=O)c(Nc4ccc(C5CCN(C[C@H]6CCN(c7ccc8c(c7)C(=O)N(C7CCC(=O)NC7=O)C8=O)C6)CC5)cc4)n3)C2)C1=O (stereo partly shown) [Compound 44]
- EC50 (TMD8 C481S cells): 8.1 nM
- EMAX (% viable cells) (TMD8 C481S cells): 25%
- effect on CRBN neo-substrate levels in cells (CRBN neo-substrates): some effect
- effects on CRBN neo-substrate levels (CRBN neo-substrates; after twenty-four hours, TMD8 and/or MOLT4 cells, FIGS. 10A and 10B): some effects
- % Aiolos Remaining in T cells (Aiolos [5]; [8]): 96%
- % Aiolos Remaining in T cells (Aiolos [5]; [9]): 71%
- % Aiolos Remaining in T cells (Aiolos [5]; [10]): 99%
- % Aiolos Remaining in T cells (Aiolos [5]; [11]): 69%
- % Aiolos Remaining in T cells (Aiolos [5]; [12]): 96%
- % Aiolos Remaining in T cells (Aiolos [5]; [13]): 63%

Compound: NC(=O)c1ncc(N2CCCCC2)nc1Nc1ccc(C2CCN(C[C@@H]3CCN(c4ccc5c(c4)C(=O)N(C4CCC(=O)NC4=O)C5=O)C3)CC2)cc1 (stereo partly shown) [Compound 149]
- EC50 (TMD8 C481S cells): 37.2 nM
- EMAX (% viable cells) (TMD8 C481S cells): 18%
- AUC ([1]; Dog Beagle, 1 mg/kg IV): 1.2 µM·h
- clearance ([1]; Dog Beagle, 1 mg/kg IV): 18.4 mL/min/kg
- Vd ([1]; Dog Beagle, 1 mg/kg IV): 7 L/kg
- AUC ([1]; Dog Beagle, 10 mg/kg PO): 0.11 µM·h
- bioavailability ([1]; Dog Beagle, 10 mg/kg PO): 0.9%
- AUC ([1]; Monkey cynomolgus, 1 mg/kg IV): 1 µM·h
- clearance ([1]; Monkey cynomolgus, 1 mg/kg IV): 22.2 mL/min/kg
- Vd ([1]; Monkey cynomolgus, 1 mg/kg IV): 7.5 L/kg
- AUC ([1]; Monkey cynomolgus, 10 mg/kg PO): 0.09 µM·h
- bioavailability ([1]; Monkey cynomolgus, 10 mg/kg PO): 0.8%
- AUC ([1]; Monkey cynomolgus, 30 mg/kg PO): 0.08 µM·h
- AUC ([1]; Mouse Balb/c, 1 mg/kg IV): 4.5 µM·h
- clearance ([1]; Mouse Balb/c, 1 mg/kg IV): 5.2 mL/min/kg
- Vd ([1]; Mouse Balb/c, 1 mg/kg IV): 1 L/kg
- AUC ([1]; Mouse Balb/c, 10 mg/kg PO): 16 µM·h
- bioavailability ([1]; Mouse Balb/c, 10 mg/kg PO): 35%
- AUC ([1]; Mouse Balb/c, 30 mg/kg PO): 27.7 µM·h
- bioavailability ([1]; Mouse Balb/c, 30 mg/kg PO): 1%
- AUC ([1]; Mouse Balb/c, 90 mg/kg PO): 37.5 µM·h
- bioavailability ([1]; Mouse Balb/c, 90 mg/kg PO): 1%
- AUC ([1]; Mouse CD-1, 1 mg/kg IV): 1.8 µM·h
- clearance ([1]; Mouse CD-1, 1 mg/kg IV): 12.6 mL/min/kg
- Vd ([1]; Mouse CD-1, 1 mg/kg IV): 1.5 L/kg
- AUC ([1]; Mouse CD-1, 10 mg/kg PO): 11.5 µM·h
- bioavailability ([1]; Mouse CD-1, 10 mg/kg PO): 64%
- AUC ([1]; Rat Sprague-Dawley, 1 mg/kg IV): 1.2 µM·h
- clearance ([1]; Rat Sprague-Dawley, 1 mg/kg IV): 19 mL/min/kg
- Vd ([1]; Rat Sprague-Dawley, 1 mg/kg IV): 2.8 L/kg
- AUC [1, 14]: 0.88 µM·h
- bioavailability [1, 14]: 7%
- IMiD activity (degradation of IMiD neo-substrates Ikaros and Aiolos) (Aiolos [2]; Mantle Cell Lymphoma lines Mino and Rec-1): demonstrate IMiD activity
- DC50 (Aiolos [2]; Mino cells): 87 nM
- DC50 (Aiolos [2]; Rec-1 cells): 81 nM
- effect on CRBN neo-substrate levels in cells (CRBN neo-substrates): some effect
- % BTK Remaining (BTK [3]; oral dose 10 mg/kg, 24 h, blood, flow cytometry): 27%
- % BTK Remaining (BTK [3]; [6]): 21%
- % BTK Remaining (BTK [3]; oral dose 30 mg/kg, 24 h, blood, flow cytometry): 11%
- % BTK Remaining (BTK [3]; [7]): 8%
- % BTK Remaining (BTK [3]; oral dose 90 mg/kg, 24 h, blood, flow cytometry): 1%
- % BTK Remaining (BTK [3]; oral dose 90 mg/kg, 24 h, splenocytes, HTRF): 1%
- DC50 (BTK [4]): 4 nM
- Aiolos degradation (Aiolos [5]; after fourteen days of dosing): demonstrated Aiolos degradation
- % Aiolos Remaining in T cells (Aiolos [5]; [8]): 79%
- % Aiolos Remaining in T cells (Aiolos [5]; [9]): 76%
- % Aiolos Remaining in T cells (Aiolos [5]; [10]): 74%
- % Aiolos Remaining in T cells (Aiolos [5]; [11]): 55%
- % Aiolos Remaining in T cells (Aiolos [5]; [12]): 77%
- % Aiolos Remaining in T cells (Aiolos [5]; [13]): 43%
